Laboratory results from publication PMC3237616 (Molecular Biology of the Cell, 2011).

Test system: PIK (PI4K; phosphatidylinositol 4-kinase)
Assay: radiometric PtdInsP formation from […]-ATP, Lineweaver-Burk
Assay type: biochemical, Mus musculus
Details: co-substrate 32P-ATP; 25 °C; 10 min; cell homogenate; without added c-Fos

- Km: 254 µM
Substance: PtdIns
